Calls of active or inactive are those of the source. How the calls were made is not given here.

Prostaglandin E2 receptor EP2 subtype (Homo sapiens), sequence (P43116 whole entry, looked up): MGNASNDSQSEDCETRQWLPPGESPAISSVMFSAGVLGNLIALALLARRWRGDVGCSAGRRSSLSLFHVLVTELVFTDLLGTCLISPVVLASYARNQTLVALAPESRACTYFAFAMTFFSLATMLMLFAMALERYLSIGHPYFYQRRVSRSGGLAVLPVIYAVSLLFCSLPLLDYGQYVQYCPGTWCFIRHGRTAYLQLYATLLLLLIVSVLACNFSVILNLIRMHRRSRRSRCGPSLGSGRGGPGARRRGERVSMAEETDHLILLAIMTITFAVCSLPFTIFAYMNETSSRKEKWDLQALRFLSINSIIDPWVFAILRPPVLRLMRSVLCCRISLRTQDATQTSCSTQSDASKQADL

The first test addresses Prostaglandin E2 receptor EP2 subtype (Homo sapiens) (UniProt P43116). Nature of the test: compounds shifting PGE2 potency at EP2 – cell-based, human EP2, PGE2 EC50 shift, dose response (AID 1421). The note with it: EP2-expressing cells, PGE2 EC50 shift by compound.
Regarding `O=C(N/N=C/c1cccc(F)c1)NC1CCCCC1`, the outcome was active.
Still for that read-out and setting: to `O=C1CCC(c2ccccc2)=NN1Cc1c(F)cccc1Cl` belongs “active”.
Still for that read-out and setting: to `CCOC(=O)c1cc(CC)sc1NC(=O)c1ccc2c(c1)OCCO2` belongs “active”; to `Cc1ccc(C)c(NC(=S)N(Cc2ccco2)C(C)c2cccs2)c1` (stereo unspecified), “active”; to `CCC(=O)N(CCC(Cc1ccccc1)c1ccco1)Cc1ccco1` (stereo unspecified), “active”.
Still for that read-out and setting: to `COc1ccc(S(=O)(=O)N2c3cc(C)ccc3OCC2C(C)(C)C)cc1` (stereo unspecified) belongs “active”.
For the molecule `O=C(NCc1ccc(F)cc1)c1ccccc1OCc1ccccc1`, the result was active.
On the same count and under the same terms, next, `Clc1ccc(COn2c(-c3ccccc3)nc3ccccc32)cc1`: “active”; `COc1ccc(-c2cc(C(F)(F)F)nc(N3CCCCC3)n2)cc1OC`: “active”.
For the molecule `FC(F)(F)c1cc(-c2ccccc2)nc(N2CCOCC2)n1`, the outcome was active.
Same read-out and setting: to `Cc1ccc(C(=O)c2c(NC(=O)c3ccncc3)sc3c2CCCC3)cc1` belongs “active”.

Still in this test, the particulars now being: EP2-expressing cells, PGE2 EC50 shift by compound; measured here: PGE2 EC50 at 6.7 uM compound.
Regarding `C=CCn1c(=O)c2c(nc(-c3ccc(S(=O)(=O)O)cc3)n2C)n(C)c1=O`, the PGE2 EC50 with compound was 2.68 nM.
With `O=C(COc1cccc2ccccc12)N1c2ccccc2CCc2ccccc21`, the PGE2 EC50 with compound amounted to 1.19 nM.
Same read-out and setting: next, `O=C(N/N=C/c1cccc(F)c1)NC1CCCCC1`: 1.1 nM; `Cc1ccc(C(=O)c2coc3ccc(OCC(=O)O)cc23)cc1`: 2.78 nM.
On the same count and under the same terms, to `COc1cc(S(=O)(=O)N(Cc2cccnc2)Cc2ccco2)ccc1-n1cnnn1` belongs 1.45 nM; to `CC(Sc1cnc2ccccc2n1)C(=O)O` (stereo unspecified), 2.61 nM; to `O=S1(=O)CCN(Cc2cccc(Cl)c2)CC1`, 1.39 nM.
With `O=C(CN1CCCCCC1)Nc1ccccc1Oc1ccccc1`, the PGE2 EC50 with compound is 0.96 nM.
Still for that read-out and setting: next, `COC(=O)CC1C(C)(C)C(OC(C)=O)[C@@H]2[C@@H](OC(C)=O)[C@]34O[C@@]2(O)[C@]1(C)C3CC[C@]1(C)C4=CC(=O)O[C@H]1c1ccoc1` (stereo partly specified): 0.74 nM; `CCOC(=O)C1=C(N)N2C(=O)C(C)SC2=C(C(=O)OC)C1c1ccccc1OC` (stereo unspecified): 0.51 nM; `O=C1CCC(c2ccccc2)=NN1Cc1c(F)cccc1Cl`: 0.9 nM.
With `Cc1cc(Oc2ccccc2F)nc(NCc2ccccc2)n1`, the PGE2 EC50 with compound was determined as 1.34 nM.
Same read-out and setting: to `CC(=O)Nc1nnc(CCN2CCCCC2)s1` belongs 1.46 nM; to `Cc1oc(-c2ccccc2)cc1C(=O)Nc1cccc(/C=C/C(=O)O)c1`, 2.37 nM; to `Cc1noc(C)c1CSc1ncnc2sc3c(c12)CCC(C)C3` (stereo unspecified), 1.06 nM.
On the same count and under the same terms, next, `CCOC(=O)c1cc(CC)sc1NC(=O)c1ccc2c(c1)OCCO2`: 0.97 nM; `C=C[C@@](C)(O)CCC1C(=C)C[C@H](O)C2C(C)(C)CCCC12C` (stereo partly specified): 2.91 nM; `Cc1cccc(C(=O)c2cnc3ccccc3c2-c2ccccc2)c1`: 0.95 nM.
Same read-out and setting: to `C=CCSc1nc(Oc2ccccc2)c2sccc2n1` belongs 2.43 nM.
As for `CCc1nnc2n1N=C(c1ccc(-c3cc(Cl)ccc3Cl)o1)CS2`, the PGE2 EC50 with compound came to 0.89 nM.
Regarding `COc1ccc(-c2cc(C(F)(F)F)nc(NC3CCCC3)n2)cc1OC`, the PGE2 EC50 with compound is 0.7 nM.
Still for that read-out and setting: to `CCOC(=O)c1c(C2CC2)csc1NC(=O)CSCc1c(C)noc1C` belongs 1.25 nM; to `CN(C)Cc1ccc(F)cc1Sc1cc(Cl)ccc1Cl`, 0.77 nM; to `O=C(CSc1nc2ccccc2o1)Nc1cc(C(F)(F)F)ccc1N1CCOCC1`, 0.77 nM.
Still for that read-out and setting: to `CC(C)c1nc(SCc2c(F)cccc2Cl)c2c(=O)n(C)c(=O)n(C)c2n1` belongs 0.55 nM; to `C[N+]1(C)CCOC(O)(c2ccc(-c3ccc(C4(O)C[N+](C)(C)CCO4)cc3)cc2)C1` (stereo unspecified), 0.14 nM; to `CN(C)c1nccc(N(Cc2ccccc2)Cc2ccccc2)c1C#N`, 1.16 nM.
Still for that read-out and setting: next, `c1ccc(Nc2nc(N3CCNCC3)nc(N3CCOCC3)n2)cc1`: 1.46 nM.
Consider `C[C@H]1CC[C@@H](C(C)(C)O)CC2=C1CC[C@@H]2C`, for which the PGE2 EC50 with compound was determined as 1.06 nM.
As for `COC(=O)c1ccc(Oc2cc(C)nc(NCc3ccccc3)n2)cc1`, the PGE2 EC50 with compound worked out at 0.34 nM.
Still for that read-out and setting: to `C/C(=N\N(Cc1ccccc1)c1ccccc1)c1cccnc1` belongs 1.38 nM.
On the same count and under the same terms, next, `CCCCN1C=C(C(=O)OC)C(c2ccccc2Cl)C(C(=O)OC)=C1`: 2.72 nM; `Cc1ccc(C)c(NC(=S)N(Cc2ccco2)C(C)c2cccs2)c1` (stereo unspecified): 0.7 nM.
The same measure, in the same setting: to `Clc1ccc(Cl)c(-c2ccc(/C=N/c3ncn[nH]3)o2)c1` belongs 1.34 nM.
As for `O=S(=O)(Nc1ccccc1N1CCCCC1)c1ccc(Cl)s1`, the PGE2 EC50 with compound was found to be 1.49 nM.
For the molecule `S=C1NCCc2ccc(Cl)cc2C1c1ccccc1` (stereo unspecified), the PGE2 EC50 with compound amounted to 1.38 nM.
`CCc1cc2cc3c(cc2nc1SCC(=O)OC(C)C)OCO3`: the PGE2 EC50 with compound stood at 0.7 nM.
The same measure, in the same setting: to `COc1ccc2c(COC(=O)c3n[nH]c4ccccc34)cc(=O)oc2c1` belongs 1.31 nM; to `O=C(c1ccc2c(c1)OCO2)N(Cc1cccs1)C1(C(=O)NC2CCCCC2)CCCCC1`, 1.08 nM.
Still for that read-out and setting: to `Cc1ccc(S(=O)(=O)n2c3ccc(Cl)cc3c3nc(C)sc32)cc1` belongs 0.44 nM; to `CCC(=O)N(CCC(Cc1ccccc1)c1ccco1)Cc1ccco1` (stereo unspecified), 0.86 nM.
On the same count and under the same terms, to `Fc1ccc(C(c2ccc(F)cc2)N2CCN(C/C=C/c3ccccc3)CC2)cc1` belongs 1.19 nM.
For `O=c1c2ccccc2c(-c2ccccc2)nn1Cc1c(Cl)cccc1Cl`, the PGE2 EC50 with compound was determined as 0.84 nM.
On the same count and under the same terms, next, `O=c1[nH]c(=S)c2c(n1-c1ccccc1)CCC2`: 1.46 nM; `O=C1COc2ccccc2N1Cc1ccccc1Cl`: 1.38 nM; `CCOc1ccc(-n2nc3c(=S)[nH]nc(C)c3c2C)cc1`: 3.04 nM.
Still for that read-out and setting: to `CCC1CCc2c(sc3ncnc(N4CCOCC4)c23)C1` (stereo unspecified) belongs 0.81 nM; to `O=C1CC(O)(c2ccccc2)C(c2ccccc2)=C1c1ccccc1` (stereo unspecified), 0.87 nM; to `Cc1cc(Br)c2nc3c(c(C(=O)O)c2c1)CCCCC3`, 2.78 nM.
On the same count and under the same terms, to `CCOC(=O)C1=C(N)OC(C)=C(C#N)C1c1ccco1` (stereo unspecified) belongs 1.49 nM; to `CCCc1cc(-c2n[nH]c(=S)n2Cc2ccccc2)cs1`, 1.36 nM.
On to `COc1ccc(C(=O)N2N=C(c3ccccc3)CC2(O)C(F)(F)F)cc1` (stereo unspecified), for which the PGE2 EC50 with compound came out at 2.7 nM.
On the same count and under the same terms, to `CCCCOc1ccccc1C1C(C(=O)OC)=C(C)N(C)C(C)=C1C(=O)OC` belongs 0.69 nM.
Take `COc1ccc(N2CCN(c3nc4c(c(=O)n(C)c(=O)n4C)n3Cc3ccccc3)CC2)cc1`: the PGE2 EC50 with compound was determined as 0.92 nM.
Still for that read-out and setting: next, `Cc1onc(-c2ccccc2Cl)c1-c1nc(-c2ccncc2)no1`: 0.83 nM; `CCOC(=O)c1c(N)sc(-c2ccccc2)c1C`: 2.56 nM; `CCOC(=O)c1sc2nc3c(SCC(=O)O)cc(C(=O)c4cc(F)ccc4O)cn3c(=O)c2c1C`: 0.6 nM.
Still for that read-out and setting: to `COC(=O)CSc1nc2c(c(C3CC=CCC3)c1C#N)CCC2` (stereo unspecified) belongs 1.26 nM; to `CCCCc1ccc(-n2c(Cc3cccs3)n[nH]c2=S)cc1`, 0.8 nM; to `Nc1cc(Cl)ccc1Oc1ccc(Cl)cc1`, 0.75 nM.
The same measure, in the same setting: to `CC1CC(C)CN(CC(=O)NC(c2ccccc2)c2ccccc2)C1` (stereo unspecified) belongs 2.64 nM; to `Cc1ccc(CN2C(=O)/C(=C\c3ccc(C(=O)NCc4cccnc4)cc3)Oc3ccccc32)cc1`, 0.95 nM; to `c1ccc(-c2nn3c(-c4ccccc4)nnc3s2)cc1`, 0.84 nM.
Regarding `Cc1cc(N)c2cc(NC(=O)Nc3ccc4nc(C)cc(N)c4c3)ccc2n1`, the PGE2 EC50 with compound turned out to be 2.6 nM.
The same measure, in the same setting: to `COc1ccc(S(=O)(=O)N2c3cc(C)ccc3OCC2C(C)(C)C)cc1` (stereo unspecified) belongs 0.75 nM; to `Cc1ccc(-c2cc3ccccc3nc2N2CCOCC2)cc1`, 1.45 nM.
Same read-out and setting: next, `O=C(NCc1ccc(F)cc1)c1ccccc1OCc1ccccc1`: 1.03 nM; `COc1ccc(C2CC(c3cccs3)=NN2C(=O)c2ccc(Br)o2)cc1` (stereo unspecified): 1.25 nM.
Still for that read-out and setting: next, `CC(=O)Oc1ccc2ccccc2c1C(NC(=O)Cc1ccccc1)c1ccccc1` (stereo unspecified): 1.1 nM.
With `COC(=O)c1ccccc1NC(=O)C(C)Oc1ccccc1` (stereo unspecified), the PGE2 EC50 with compound worked out at 0.9 nM.
The same measure, in the same setting: next, `Clc1ccc(COn2c(-c3ccccc3)nc3ccccc32)cc1`: 2.65 nM; `CCOC(=O)c1ccc2nc(C(F)(F)F)[nH]c(=O)c2c1`: 1.19 nM.
As to `CCOC(=O)C1=CN(CC2CCCO2)C=C(C(=O)OCC)C1c1ccccc1C(F)(F)F` (stereo unspecified), the PGE2 EC50 with compound is 1.3 nM.
Still for that read-out and setting: next, `CCCCOc1ccc(-c2nnc(-c3ccco3)o2)cc1`: 1.18 nM.
As for `C=CCC1(C)C(=O)N(c2ccccc2)c2ccccc21` (stereo unspecified), the PGE2 EC50 with compound was 2.93 nM.
The same measure, in the same setting: to `O=C(c1ccc(Cl)cc1)c1oc2ccccc2c1CS(=O)c1ccccc1` (stereo unspecified) belongs 0.87 nM.
In the case of `CCn1c(COc2ccc(Cl)cc2)nnc1SCC(=O)Nc1ccc2c(c1)OCO2`, the PGE2 EC50 with compound was 1.09 nM.
On the same count and under the same terms, next, `COc1ccc(-c2c3c([nH]c(=S)c2C#N)CCC3)cc1`: 2.78 nM; `COc1ccc(-c2c(C(C)=O)c(C)nc3sc4c(c23)NC(c2ccccc2)NC4=O)cc1` (stereo unspecified): 1.87 nM; `Cc1ccc(S(=O)(=O)c2c(C)cc(C)nc2N2CCCCC2)cc1`: 1.31 nM.
On the same count and under the same terms, to `S=c1[nH]nc(-c2ccc3ccccc3n2)n1Cc1ccccc1` belongs 0.91 nM; to `COc1ccc(-c2cc(C(F)(F)F)nc(N3CCCCC3)n2)cc1OC`, 0.57 nM; to `COc1ccc(-n2c(=S)[nH]c3c(oc4ccccc43)c2=O)cc1`, 2.8 nM.
On the same count and under the same terms, next, `FC(F)(F)c1cc(-c2ccccc2)nc(N2CCOCC2)n1`: 1.59 nM; `COc1c(O)cc2oc3cc(O)c(CC=C(C)C)c(O)c3c(=O)c2c1CC=C(C)C`: 2.62 nM.
`COc1ccc(-c2cc(C(F)(F)F)nc(NCc3ccco3)n2)cc1OC`: the PGE2 EC50 with compound turned out to be 0.53 nM.
The same measure, in the same setting: next, `O=C(O)c1cc2cc(F)ccc2[nH]1`: 0.93 nM; `O=C(Nc1ccccc1Oc1ccccc1)c1ccccc1F`: 1.07 nM; `C=CCCC1(C)C(=O)N(c2ccccc2)c2ccccc21` (stereo unspecified): 1.2 nM.
The same measure, in the same setting: to `Cc1ccc(C(=O)c2c(NC(=O)c3ccncc3)sc3c2CCCC3)cc1` belongs 0.66 nM.

The record behind these values is PubChem BioAssay AID1421 (Emory University Molecular Libraries Screening Center, 2008).
